pIC50: −log10 of the molar value.

The target of this assay is human CD73 enzyme (Homo sapiens (Human), UniProt P21589). As to the kind of experiment: Biochemical CD73 Assay. To be noted: recombinant human CD73 2 nM, AMP 40 μM, Malachite Green free phosphate detection. The procedure:
Activity of recombinant CD73 was measured by quantification of free phosphate using the Malachite Green detection system (R&D Systems #DY996). Test compounds were solubilized in DMSO and dispensed into 384-well polystyrene plates in a 8-point 3× titration in duplicates. Then, 10 μL of 4 nM human CD73 enzyme (Novoprotein #C446) in phosphate- free assay buffer (10 mM HEPES, pH 7.4, 125 mM NaCl, 1 mM KCl, 10 mM glucose, 2 mM MgCl2) was added to the plates. The compound and enzyme were incubated for 15 min at RT. Then, 10 μL of 80 μM AMP (Sigma Aldrich #A1752) in the assay buffer was added and the reaction mixture was incubated for […] at 37° C. The final concentrations of CD73 and AMP in the reaction were 2 nM and 40 μM, respectively. The reaction was stopped by adding 5 μL of Malachite Green reagent A and incubating for 10 mM at RT, followed by addition of 5 μL of Malachite Green reagent B and incubation for 20 mM at RT. Absorbance was then read at 620 nm with the Flexstation spectrophotometer (Molecular Devices). The IC50 values were determined using a four-parameter nonlinear regression curve fit.

Chain of human CD73 enzyme (P21589 27-574): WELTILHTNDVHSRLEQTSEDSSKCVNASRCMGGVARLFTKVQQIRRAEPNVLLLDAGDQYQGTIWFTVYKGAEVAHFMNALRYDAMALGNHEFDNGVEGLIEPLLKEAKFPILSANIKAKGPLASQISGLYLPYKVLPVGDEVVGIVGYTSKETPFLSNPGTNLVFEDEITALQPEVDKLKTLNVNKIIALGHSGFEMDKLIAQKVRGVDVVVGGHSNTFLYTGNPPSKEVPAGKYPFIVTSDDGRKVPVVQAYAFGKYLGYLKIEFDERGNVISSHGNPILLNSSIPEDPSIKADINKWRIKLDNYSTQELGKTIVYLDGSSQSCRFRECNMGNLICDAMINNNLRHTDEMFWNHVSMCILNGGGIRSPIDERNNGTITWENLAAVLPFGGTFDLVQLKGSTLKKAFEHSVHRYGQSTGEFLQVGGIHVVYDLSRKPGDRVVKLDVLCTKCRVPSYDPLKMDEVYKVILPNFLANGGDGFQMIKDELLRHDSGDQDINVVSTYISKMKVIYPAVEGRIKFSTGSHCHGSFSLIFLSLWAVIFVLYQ

As for `COC[C@](OC[C@H]1O[C@@H](n2ncc3c(NC4CCCC4)nc(Cl)nc32)[C@H](O)[C@@H]1O)(C(=O)NS(=O)(=O)N1CCC1)P(=O)(O)O` [Example 6, ((R)-1-(Azetidine-1-sulfonamido)-2-(((2R,3S,4R,5R)-5-(6-chloro-4-(cyclopentylamino)-1H-pyrazolo[3,4-d]pyrimidin-1-yl)-3,4-dihydroxytetrahydrofuran-2-yl)methoxy)-3-methoxy-1-oxopropan-2-yl)phosphonic Acid], the negative-log IC50 (pIC50) is 6.09.

As for `COC[C@@](OC[C@H]1O[C@@H](n2ncc3c(NC4CCCC4)nc(Cl)nc32)[C@H](O)[C@@H]1O)(C(=O)NS(=O)(=O)N(C)C)P(=O)(O)O` [Example 1, ((S)-2-(((2R,3S,4R,5R)-5-(6-Chloro-4-(cyclopentylamino)-1H-pyrazolo[3,4-d]pyrimidin-1-yl)-3,4-dihydroxytetrahydrofuran-2-yl)methoxy)-1-((N,N-dimethylsulfamoyl)amino)-3-methoxy-1-oxopropan-2-yl)phosphonic Acid], the pIC50 is 8.19.

For the molecule `COC[C@@](OC[C@H]1O[C@@H](n2ncc3c(NC4CCCC4)nc(Cl)nc32)[C@H](O)[C@@H]1O)(C(=O)NS(=O)(=O)N1CC[C@@H](O)C1)P(=O)(O)O` [Example 7], the pIC50 was 8.21.

On to `COC[C@@](OC[C@H]1O[C@@H](n2ncc3c(NC4CCCC4)nc(Cl)nc32)[C@H](O)[C@@H]1O)(C(=O)NS(=O)(=O)N1CCCC1)P(=O)(O)O` [Example 4], for which the negative logarithm of the IC50 (pIC50) is 8.22.

With `COC[C@@](OC[C@H]1O[C@@H](n2ncc3c(NC4CCCC4)nc(Cl)nc32)[C@H](O)[C@@H]1O)(C(=O)NS(=O)(=O)N1CCC1)P(=O)(O)O` [Example 5, ((S)-1-(Azetidine-1-sulfonamido)-2-(((2R,3S,4R,5R)-5-(6-chloro-4-(cyclopentylamino)-1H-pyrazolo[3,4-d]pyrimidin-1-yl)-3,4-dihydroxytetrahydrofuran-2-yl)methoxy)-3-methoxy-1-oxopropan-2-yl)phosphonic Acid], the pIC50 was 8.64.

Take `COC[C@](OC[C@H]1O[C@@H](n2ncc3c(NC4CCCC4)nc(Cl)nc32)[C@H](O)[C@@H]1O)(C(=O)NS(=O)(=O)N(C)C)P(=O)(O)O` [Example 2, ((R)-2-(((2R,3S,4R,5R)-5-(6-chloro-4-(cyclopentylamino)-1H-pyrazolo[3,4-d]pyrimidin-1-yl)-3,4-dihydroxytetrahydrofuran-2-yl)methoxy)-1-((N,N-dimethylsulfamoyl)amino)-3-methoxy-1-oxourouan-2-yl)phosphonic Acid]: the negative logarithm of the IC50 (pIC50) was 6.94.

Take `COC[C@@](OC[C@H]1O[C@@H](n2ncc3c(NC4CCCC4)nc(Cl)nc32)[C@H](O)[C@@H]1O)(C(=O)NS(=O)(=O)N1CC[C@H](O)C1)P(=O)(O)O` [Example 9, ((S)-2-(((2R,3S,4R,5R)-5-(6-Chloro-4-(cyclopentylamino)-1H-pyrazolo[3,4-d]pyrimidin-1-yl)-3,4-dihydroxytetrahydrofuran-2-yl)methoxy)-1-(((S)-3-hydroxypyrrolidine)-1-sulfonamido)-3-methoxy-1-oxopropan-2-yl)phosphonic Acid]: the pIC50 is 8.52.

Turning to `COC[C@@](OC[C@H]1O[C@@H](n2ncc3c(NC4CCCC4)nc(Cl)nc32)[C@H](O)[C@@H]1O)(C(=O)NS(=O)(=O)N1CCCC1=O)P(=O)(O)O` [Example 3], the negative logarithm of the IC50 (pIC50) was 9.32.

The values are drawn from patent US20240140979A1, “HETEROCYCLIC INHIBITORS OF CD73 FOR TREATMENT OF DISEASE” (Teon Therapeutics, Inc., priority 2022, published 2024).
